This is an account of results in PubChem BioAssay (NCI).

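Test compounds were applied to cells in 96-well plates for 48 hours at 5 doses. The concentration for full growth arrest is given as TGI.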

The test system of this experiment is P388 leukemia. Nature of the experiment: NCI tumour cell line growth inhibition, 48 h.

Compound `O=C1C(=O)c2ccccc2C(O)=C1CC=C(Cl)Cl` had a TGI of 54.9 µM.
